Patent US9446039B2, “Aminoheteroaryl compounds as MTH1 inhibitors” (CEMM—FORSCHUNGSZENTRUM FÜR MOLEKULARE MEDIZIN GMBH, priority 2012, dated 2016)
“Also recorded” adds a separate entry of the source.

Legend:
[1] = test system: SW480 cells; experiment: Colony formation assay using SW480 cells; assay type: cell-based, human; details: K-Ras-mutated SW480 colon carcinoma
Description: Colony Formation Assay Using SW480 Cells. One day before treatment, 10^4 cells were seeded per well in 6-well plates and incubated for 24 h. The next day DMSO (equal to highest amount of compound dilution, maximum 0.2%) or compounds in increasing concentrations were added and cells incubated at 37° C., 5% CO2, for 7-10 days. After washing with PBS (Gibco), cells were fixed with ice-cold methanol, stained with crystal violet solution (0.5% in 25% methanol) and left to dry overnight. For quantification of results, UV absorbance of crystal violet was determined at 595 nm after solubilisation by 70% ethanol. Data were analysed using non-linear regression analysis utilizing the GraphPad Prism software.

[2] = biological target: T1, MTH1 (Homo sapiens, UniProt P36639); experiment: Isothermal titration calorimetry (direct binding assay); design: His-tag (TEV site) (cleaved yes); made in house; host or cells: E. coli BL21 DE3; details: 15° C., 50 mM Tris-HCl pH 7.8, 150 mM NaCl
[3] = test system: SW480 cells; experiment: Alkaline comet assay (DNA single strand breaks) in SW480 cells; assay type: cell-based, human; details: 6 days treatment, alkali conditions
Description: (§1) Comet Assay. Cells were treated with compounds for 6 days, upon which DNA single-strand breaks were assayed using the comet assay under alkali conditions. […] Cells were washed twice with PBS, harvested using a rubber scraper, pelleted by centrifugation, resuspended in PBS and mixed with 1% low-gelling-temperature agarose (Sigma type VII) that was maintained at 37° C. The mixture of cells and agarose was layered onto frosted glass slides pre-coated with 0.5% agarose and slides were placed on ice to gel. Slides were maintained in the dark for all subsequent steps. […] After electrophoresis for 25 minutes at 25 volts, slides were placed at 4° C. over-night, in the dark. The following day, slides were neutralized with 0.4 M Tris-HCl pH 7.0 for 1 hour and stained with SYBR Gold (Invitrogen, diluted 1:10,000 in distilled water) for 30 minutes. Comet tail moments (defined as the average distance migrated by the DNA multiplied by the fraction of DNA in the comet tail) were scored using the CellProfiler cell image analysis software.

[4] = test system: SW480 cells; experiment: Indirect immunofluorescence for 53BP1 foci in SW480 cells; assay type: cell-based, human; details: 6 days treatment
Description: Indirect Immunofluorescence. Cells were treated with compounds for 6 days, following which they were adhered to glass coverslips, washed with PBS and then fixed with 3% paraformaldehyde in PBS for 20 minutes. Fixed cells were rinsed with PBS and permebealised with 0.5% Triton-X-100 for 5 minutes. PBS washed slides were incubated for 1 hour with 10% FCS and 0.1% Triton-X-100 in PBS following which cells were stained with an anti-53BP1 monoclonal antibody (H-300, Santa Cruz, diluted 1:600), in 10% FCS and 0.1% Triton-X-100 in PBS. […] After a PBS wash, DNA was counterstained with DAPI (Sigma-Aldrich) for 10 minutes and the coverslips were mounted in Fluorescent Mounting Medium (Dako). Images were analysed with a Zeiss fluorescent microscope at 63 times magnification with supporting software.

[5] = test system: MRC-5 lung fibroblasts; experiment: Comet assay in MRC-5 lung fibroblasts; assay type: cell-based
Description: as §1

[6] = biological target: T1, MTH1; experiment: MTH1 catalytic assay (luminescence-based, PPi from 8-oxo-dGTP hydrolysis, PPiLight); assay type: biochemical; design: His-tag (TEV site) (cleaved yes); made in house; host or cells: E. coli BL-21(DE3), vector pETM-11
[7] = test system: SH-SY5Y, NCI-H3122 and NCI-H1648 cell lysates; experiment: Chemical proteomics competition pull-downs (iTRAQ) in SH-SY5Y, NCI-H3122 and NCI-H1648 lysates; assay type: binding, human; details: competition with 20 μM unmodified crizotinib
[8] = test system: BJ fibroblasts; experiment: 8-oxo-guanine staining in BJ cells; details: fixed 72 h later
[9] = test system: BJ skin fibroblasts; experiment: Colony formation assay with untransformed BJ skin fibroblasts; assay type: cell-based, human; details: 10 days incubation
[10] = test system: Ewing's sarcoma family of tumours (ESFT) cells
[11] = test system: ALK; experiment: Drug pull-down with immobilized compounds from SH-SY5Y cells, Western blot for ALK; assay type: binding, human; details: SH-SY5Y lysate
Description: Immobilization and Affinity Purification. […] Briefly, 25 nmol of compound was immobilised on 50 μL NHS-activated Sepharose 4 Fast Flow beads (GE Healthcare Bio-Sciences AB, Uppsala, Sweden).

[12] = test system: SW480 cells; experiment: ATM phosphorylation in SW480 cells; assay type: cell-based, human
[13] = test system: SW480 cells; experiment: SW480 mouse xenograft study; assay type: in vivo, SCID mice; details: 25 mg/kg s.c. once daily, 35 days
Description: (§2) Xenograft Study. SCID mice (female, 5-6 weeks, Scanbur, Germany) were s.c. injected with 1×10^6 SW480 cells together with a matrix gel (1:1) in the sacral area. Treatment was initiated one day after cell inoculation. Vehicle or MTH1 inhibitor was administered subcutaneously once daily at 25 mg/kg for 35 days. MTH1 inhibitor was diluted in 1% DMSO, 10% ethanol, 10% cremaphore, 10% Tween 80, 69% PBS. Tumour size was measured twice weekly and body weight once weekly. At termination, a gross postmortem inspection was performed; blood was collected for haematological parameters and ASAT, ALAT, creatinine measurements and tumours collected in paraformaldehyde (4%) and later paraffin inbedded for immunohistology analysis. All experiments involving animals followed protocols approved by Stockholms Norra djurfOrsoksetiska namnd (laboratory animal ethical committee Stockholm). All animals were acclimatised for one week, and had free access to water and food during the experiment. Animals were under a 12-hour lightcycle, and temperature and humidity according to laboratory animal guidelines and regulations.

[14] = test system: MCF-7; details: 10 μM, versus DMSO-treated cells
[15] = test system: HCT116 colon carcinoma cells; experiment: HCT116 isogenic cell line system (p53/p21/MLH1 status); details: HCT116 isogenic lines
[16] = Tolerability in the xenograft study: hematology, liver/heart/kidney parameters, body weight; assay type: in vivo, SCID mice
Description: as §2, with “MTH1 inhibitor was diluted in 1% DMSO, 10% ethanol, 10% cremaphore, 10% Tween 80, 69% PBS.” left out

[17] = test system: MDA-MB-231; details: 10 μM, versus DMSO-treated cells; KRAS G13D
[18] = test system: isogenic BJ fibroblast cell lines; experiment: Colony formation assays in isogenic BJ fibroblast cell lines (anti-cancer specificity); assay type: cell-based; details: hTERT+SV40T, hTERT+SV40T+KRAS V12
Text: FIG. 28: Anti-cancer specificity. […] As indicated, the investigated cell line panel comprised non-transformed (“wildtype”) cells, cells immortalized with telomerase (hTERT), cells transformed with hTERT and SV40 Large T antigen (SV40T), and cells transformed with hTERT, SV40T, and the KRAS mutant V12.
The investigated cell line panel comprised non-transformed (“wildtype”) cells, cells immortalized with telomerase (hTERT), cells transformed with hTERT and SV40 Large T antigen (SV40T), and cells transformed with hTERT, SV40T, and the KRAS mutant V12 (FIG. 28).

[19] = test system: SW480 colon carcinoma cells lysate proteins; assay type: binding, human; details: immobilized aminopropyl derivative of (S)-crizotinib
[20] = test system: PANC1 pancreatic cancer cells; experiment: Colony formation assay using PANC1 cells; assay type: cell-based, human; details: K-Ras mutated PANC1
[21] = test system: SW480 colon carcinoma cells; experiment: siRNA experiments (MTH1 gene silencing, colony staining); assay type: cell-based, human
Description: siRNA Experiments. Both a commercial anti-MTH1 siRNA set (SMARTpool ON-TARGETplus, Dharmacon) as well as a custom-synthesised siRNA (Sigma-Aldrich) were obtained. […]. For transfections, cells were seeded in 24-well plates at approximately 30% confluency 24 h prior to siRNA treatment. The next day, medium was aspirated and transfections were performed with […]in (Polyplus) according to manufacturer's instructions using a final siRNA concentration of 10 nM. Cells were incubated for 2-3 days, washed, detached with trypsin and replated in 6-well plates. After 7-10 days, medium was aspirated, cells were washed with PBS, fixed with ice-cold methanol, stained with crystal violet solution (0.5% in 25% methanol) and left to dry overnight. […]. Data were analysed using the GraphPad Prism software (t test, P<0.05).

[22] = error of nonlinear least squares fit
[23] = 25 mg/kg s.c. 35 days, EDTA plasma, mean ± SD
[24] = 25 mg/kg s.c. 35 days, mean ± SD

## Cn1cc(-c2ccc3nnc(C(F)(F)c4ccc5ncccc5c4)n3n2)cn1 [JNJ-38877605, reference compound]
[1]
  colony formation / growth of SW480 cells: does not suppress growth

## COc1ccc2nc3c(c(C)nn3C)c(NCCOCCO)c2c1 [SCH51344]
[2]
  TΔS: 3.17 kcal/mol
[2]; [22]
  Kd: 49 ± 5.6 nM
  ΔH: -6.479 ± 0.045 kcal/mol
[3]
  tail moment in the comet assay: yielded a significant tail moment
[4]
  number of 53BP1 foci: increase the number of 53BP1 foci

## CC(Oc1cc(-c2cnn(C3CCNCC3)c2)cnc1N)c1c(Cl)ccc(F)c1Cl (racemic) [racemic crizotinib, 3-[1-(2,6-dichloro-3-fluoro-phenyl)-ethoxy]-5-(1-piperidin-4-yl-1H-pyrazol-4-yl)-pyridin-2-ylamine]
[5]
  DNA damage in comet assay: induced DNA damage

## COc1cc(N2CCC(N3CCN(C)CC3)CC2)ccc1Nc1ncc(Cl)c(Nc2ccccc2S(=O)(=O)C(C)C)n1 [NVP-TAE684, reference compound]
[6]; concentrations of 100 μM, data not shown
  inhibition of MTH1 catalytic activity at 100 μM: did not exhibit any significant inhibition

## C[C@@H](Oc1cc(-c2cnn(C3CCNCC3)c2)cnc1N)c1c(Cl)ccc(F)c1Cl [(R)-crizotinib, 3-[1-(2,6-dichloro-3-fluoro-phenyl)-ethoxy]-5-(1-piperidin-4-yl-1H-pyrazol-4-yl)-pyridin-2-ylamine]
[7]
  targets identified by chemical proteomics: common target of crizotinib in all samples
[8]
  staining of anti-8-oxo-guanine antibody: not
[9]; listed as (R)-enantiomer
  toxicity on non-transformed BJ skin fibroblasts (colony formation): significantly impairs the growth; also recorded: higher toxicity
[10]
  growth inhibition of ESFT cells: inhibited the growth of these cells at low nanomolar concentrations

## CC(Oc1cc(-c2cnn(C3CCN(CCCN)CC3)c2)cnc1N)c1c(Cl)ccc(F)c1Cl (centres unmarked) [CeMM-146]
[6]; 8-oxo-dGTP hydrolysis
  inhibition of MTH1 catalytic activity (in words): nanomolar inhibition
[11]
  enrichment / binding of ALK isoforms by immobilized compound: enriches both ALK isoforms to highest extent

## C[C@H](Oc1cc(-c2cnn(C3CCNCC3)c2)cnc1N)c1c(Cl)ccc(F)c1Cl [(S)-enantiomer of crizotinib, (S)-3-[1-(2,6-dichloro-3-fluoro-phenyl)-ethoxy]-5-(1-piperidin-4-yl-1H-pyrazol-4-yl)-pyridin-2-ylamine]
[12]
  ATM phosphorylation: increase of ATM phosphorylation
[3]
  tail moment in the comet assay: yielded a significant tail moment
[13]
  reduction in tumour volume: more than 50%
[14]
  growth of MCF-7 in colony formation assay: significantly decreased the growth
[15]
  effect of loss of p21 on sensitivity of HCT116 cells: seems to increase the sensitivity
  effect of p53 status and functional MLH1 on activity in HCT116 cells: do not affect the activity
[4]
  number of 53BP1 foci: increase the number of 53BP1 foci
[16]; [23]
  P-ALAT: 0.26 ± 0.07 mCat/l
  p-ASAT: 1.10 ± 0.32 mCat/l
  p-Creatinine: 18.6 ± 4.24 µM
[16]; [24]
  HBG: 134 ± 6.25 g/L
  Lymphocytes: 0.23 ± 0.06 10^9/l
  MCH: 14.07 ± 0.30 pg
  MCHC: 327 ± 4.90 g/L
  MCV: 43.02 ± 1.07 fL
  Monocytes: 0.16 ± 0.11 10^9/l
  Neutrophils: 1.50 ± 0.51 10^9/l
  RBC: 9.51 ± 0.37 10^12/l
  Thrombocytes: 828 ± 160 10^9/l
  WBC: 1.90 ± 0.64 10^9/l
[16]; 25 mg/kg s.c. once daily, 35 days
  tolerability: well-tolerated
[16]; 25 mg/kg s.c., 35 days, versus vehicle
  change in haematological parameters: no significant change
[8]
  staining of anti-8-oxo-guanine antibody: increased staining
[17]
  growth of MDA-MB-231 in colony formation assay: significantly decreased the growth
[18]
  toxicity to transformed versus wildtype / hTERT-immortalized BJ cells: more toxic to transformed cells than to wildtype cells
[9]
  toxicity on non-transformed BJ skin fibroblasts (colony formation): does not exhibit any increased unspecific cytotoxicity
[19]
  main cellular target in SW480 cells: MTH1 (gene name NUDT1) is the main target
[20]
  colony formation of PANC1 cells: efficiently inhibited colony formation
[1]
  colony formation / growth of SW480 cells: efficiently inhibited colony formation; also recorded: considerably more effective

## anti-MTH1 siRNA: siRNA against MTH1; custom sequence CGACGACAGCUACUGGUUU (SEQ ID No. 48) or SMARTpool set (listed as RNA, chemistry not given here)
[21]
  viability of SW480 cells after MTH1 gene silencing: impairs viability
